Legend:
Assay type in all cases: cell-based
Vibrio salmonicidia = test: Minimal inhibitory concentration, Vibrio salmonicidia
[1] = system: Vibrio anguillarum, serotype 1; test: Minimal inhibitory concentration, Vibrio anguillarum, serotype 1
[2] = system: Yersinia ruckeri, serotype 2; test: Minimal inhibitory concentration, Yersinia ruckeri, serotype 2
[3] = system: Yersinia ruckeri, serotype 3; test: Minimal inhibitory concentration, Yersinia ruckeri, serotype 3

CCn1cc(C(=O)O)c(=O)c2cc3c(cc21)OCO3 [Oxolinic Acid, oxolinic acid]
Minimal Inhibitory Concentration (Vibrio salmonicidia): 0.07 | Minimal Inhibitory Concentration [1]: 0.035 | Minimal Inhibitory Concentration [2]: 1.0 | Minimal Inhibitory Concentration [3]: 0.25

CC1CCc2cc(F)cc3c(=O)c(C(=O)O)cn1c23 (centres unmarked) [Flumequine, flumequine]
Minimal Inhibitory Concentration (Vibrio salmonicidia): 0.035 | Minimal Inhibitory Concentration [1]: 0.035 | Minimal Inhibitory Concentration [2]: 1.2 | Minimal Inhibitory Concentration [3]: 0.25
